assay: Log of liquid dish neat product liquid-air partition coefficient; format: physicochemical; conditions: not given

SMILES	Comment Code: Log of liquid dish neat product liquid-air partition coefficient
CC1(C)C2=C(CO)CCC(C)(C)C23CCC1C3 (stereo not shown) [Material 248]	K (Log of liquid dish neat product liquid-air partition coefficient greater than or equal to 7)
O=C(O)CCc1ccccc1 [Material 255]	K (Log of liquid dish neat product liquid-air partition coefficient greater than or equal to 7)
CC1(C)CCc2ccc(CCC=O)cc21 [Material 260]	K (Log of liquid dish neat product liquid-air partition coefficient greater than or equal to 7)
CC1(C)CCc2ccc(CCC=O)cc21 [Material 261]	K (Log of liquid dish neat product liquid-air partition coefficient greater than or equal to 7)
CCCCCCOC(=O)c1ccco1 [Material 275]	K (Log of liquid dish neat product liquid-air partition coefficient greater than or equal to 7)
CC(=O)OC1CC2CC1C1CC=CC21 (stereo not shown) [Material 281]	K (Log of liquid dish neat product liquid-air partition coefficient greater than or equal to 7)
O=Cc1ccc2c(c1)OCO2 [Material 287]	K (Log of liquid dish neat product liquid-air partition coefficient greater than or equal to 7)
CC(C)=CCC/C(C)=C/COC=O [Material 306]	K (Log of liquid dish neat product liquid-air partition coefficient greater than or equal to 7)
CCC(C)C(=O)N(C)c1ccccc1 (stereo not shown) [Material 314]	K (Log of liquid dish neat product liquid-air partition coefficient greater than or equal to 7)
CC1=C2CC(C(C)(C)O)CCC2(C)CCC1 (stereo not shown) [Material 329]	K (Log of liquid dish neat product liquid-air partition coefficient greater than or equal to 7)
CC1COCc2cc3c(cc21)C(C)(C)C(C)C3(C)C (stereo not shown) [Material 335]	K (Log of liquid dish neat product liquid-air partition coefficient greater than or equal to 7)

same assay, conditions: code letter within the Comment Code cell

SMILES	Log of liquid dish neat product liquid-air partition coefficient (Comment Code K/L)
c1ccc2c(c1)CC1COCOC21 (stereo not shown) [Material 247]	K (Log of liquid dish neat product liquid-air partition coefficient greater than or equal to 7)
CC(CCO)CCCC(C)(C)O (stereo not shown) [Material 249]	K (Log of liquid dish neat product liquid-air partition coefficient greater than or equal to 7)
CC(CO)C1CCCCCCCCCCC1 (stereo not shown) [Material 252]	K (Log of liquid dish neat product liquid-air partition coefficient greater than or equal to 7)
OCCCc1ccccc1 [Material 254]	K (Log of liquid dish neat product liquid-air partition coefficient greater than or equal to 7)
COC(OC)C(C)c1ccccc1 (stereo not shown) [Material 256]	K (Log of liquid dish neat product liquid-air partition coefficient greater than or equal to 7)
CCC1=C(O)C(=O)C(C)O1 (stereo not shown) [Material 259]	K (Log of liquid dish neat product liquid-air partition coefficient greater than or equal to 7)
CC1(C)CCc2ccc(CCC=O)cc21 [Material 260]	K (Log of liquid dish neat product liquid-air partition coefficient greater than or equal to 7)
CC1(C)CCc2ccc(CCC=O)cc21 [Material 261]	K (Log of liquid dish neat product liquid-air partition coefficient greater than or equal to 7)
CCCCCCCC(=O)OCCCCCC [Material 263]	K (Log of liquid dish neat product liquid-air partition coefficient greater than or equal to 7)
CCCCCCOC(=O)c1ccccc1 [Material 271]	K (Log of liquid dish neat product liquid-air partition coefficient greater than or equal to 7)
CC=C(C)C(=O)OCCC=CCC [Material 274]	K (Log of liquid dish neat product liquid-air partition coefficient greater than or equal to 7)
O=C1CCCCCCCCCCCCCCCO1 [Material 277]	K (Log of liquid dish neat product liquid-air partition coefficient greater than or equal to 7)
CCOC(=O)C1C2C=CC(C2)C1C(C)C (stereo not shown) [Material 280]	K (Log of liquid dish neat product liquid-air partition coefficient greater than or equal to 7)
CC(=O)OC1CC2CC1C1CC=CC21 (stereo not shown) [Material 281]	K (Log of liquid dish neat product liquid-air partition coefficient greater than or equal to 7)
CC(C=O)Cc1ccc2c(c1)OCO2 (stereo not shown) [Material 288]	K (Log of liquid dish neat product liquid-air partition coefficient greater than or equal to 7)
O=C1CCCCCCCCCC/C=C/CCO1 [Material 289]	K (Log of liquid dish neat product liquid-air partition coefficient greater than or equal to 7)
CC1CCC(C(C)(C)O)CC2=C1CCC2C (stereo not shown) [Material 292]	K (Log of liquid dish neat product liquid-air partition coefficient greater than or equal to 7)
CCC(=O)CCC1C(C)=CCCC1(C)C (stereo not shown) [Material 293]	K (Log of liquid dish neat product liquid-air partition coefficient greater than or equal to 7)
CCOC(=O)C1C(CC)=CCCC1(C)C (stereo not shown) [Material 294]	K (Log of liquid dish neat product liquid-air partition coefficient greater than or equal to 7)
CC1=CCC(=C(C)C)CCC(C)=CCC1 [Material 295]	K (Log of liquid dish neat product liquid-air partition coefficient greater than or equal to 7)
C=C1C=CC(C(C)C)CCC(C)=CCC1 (stereo not shown) [Material 296]	K (Log of liquid dish neat product liquid-air partition coefficient greater than or equal to 7)
CC(=O)OC1(C)CCC(=C(C)C)CC1 (stereo not shown) [Material 317]	K (Log of liquid dish neat product liquid-air partition coefficient greater than or equal to 7)
CC(C)=C1CCC(C)(O)CC1 (stereo not shown) [Material 318]	K (Log of liquid dish neat product liquid-air partition coefficient greater than or equal to 7)
C=C1CCCC(C)(C)C1C=CC(C)=O (stereo not shown) [Material 324]	K (Log of liquid dish neat product liquid-air partition coefficient greater than or equal to 7)
CC1=C2CC(C(C)(C)O)CCC2(C)CCC1 (stereo not shown) [Material 329]	K (Log of liquid dish neat product liquid-air partition coefficient greater than or equal to 7)
CCCCCCCCC1CCC(=O)O1 (stereo not shown) [Material 330]	K (Log of liquid dish neat product liquid-air partition coefficient greater than or equal to 7)
C=C1CCCC(C)(C)C1C(=O)C=CC (stereo not shown) [Material 331]	K (Log of liquid dish neat product liquid-air partition coefficient greater than or equal to 7)
C=CCCC(=O)C1CCCC(C)(C)C1 (stereo not shown) [Material 334]	K (Log of liquid dish neat product liquid-air partition coefficient greater than or equal to 7)
CC1COCc2cc3c(cc21)C(C)(C)C(C)C3(C)C (stereo not shown) [Material 335]	K (Log of liquid dish neat product liquid-air partition coefficient greater than or equal to 7)

Source: patent publication US20170333591A9, “ABSORBENT ARTICLE COMPRISING MALODOR REDUCTION COMPOSITIONS” (The Procter & Gamble Company, priority 2014, published 2017)
